Source: patent US20040059104A1, “Nucleotide mimics and their prodrugs” (priority 2002, published 2004)
pIC50, pKi: −log10 of the molar value. Where two headings read alike, the source gives them in different places.

Tests used:
[1] = target: purified bovine brain tubulin; assay: Assay for inhibition of microtubule (tubulin) polymerization; type: biochemical; settings: 50 μM GTP, 37° C.; read-out: Ki, Inhibition of Tubulin Polymerization by Nucleotide Mimics
Experimental: The assays employed to measure the polymerization and stability of tubulin microtubule protein are described below. The effectiveness of the compounds of the present invention as modulators of tubulin microtubule protein dynamics was measured in the following assays.
This assay was used to measure the ability of the nucleotide mimics of the present invention to inhibit the polymerization of tubulin subunits and subsequent assembly of microtubule protein. This assay is a modification of a published procedure (Xu et al., “Interaction of Tubulin with Guanosine 5′-O-(1-Thiotriphosphate) Diastereoisomers: Specificity of the α-Phosphate Binding Region”, Biochemistry 1994, 33, 11884-90).
The compounds were tested at various concentrations up to 500 μM final concentration. Polymerization assays were performed in 96-well microplates (Costar), in assay buffer containing GTP and tubulin. The nucleotide mimics of the present invention were diluted in buffer and pipetted into the plate wells. Samples were kept on ice until the reactions were initiated by moving the plates into a 37° C. incubator. The polymerization reaction was allowed to proceed at 37° C. for 30 minutes, monitored at 340 nm using a microplate spectrophotometer with a temperature-controlled incubator (Molecular Devices, Sunnyvale, Calif.). Initial velocity data (mA min^−1) was collected and fit to the equations below.
The percentage of inhibition was calculated according to the following equation:
% Inhibition=[1−(mA min^−1 in test reaction−mA min^−1 in blank)/(mA min^−1 in control reaction−mA min^−1 in blank)]×100.
Each inhibitor was titrated over an appropriate range of concentrations, and inhibition constants were determined using the following equations:
v=Vm[S]/(Km(1+[I]/Ki)+[S])

[2] = target: HIV reverse transcriptase (RT) (Human immunodeficiency virus type 1 group M subtype B, UniProt P04585); settings: assays using homopolymer templates; background statement; cited from earlier work
HIV-1RF = assay: Anti-HIV-1 cytoprotection assay in CEM-SS cells; type: cell-based; settings: CEM-SS cells infected with HIV-1RF, MOI approximately 0.01, 6 days, MTS; read-out: CEM-SS IC50 (Anti-HIV Screening)
Experimental: (§1) ollowing paper: Structure-Activity and Cross-Resistance unodeficiency Virus Type 1-Specific ckheit, Jr. et al., Antimicrobial Agents and s were evaluated in CEM-SS cell cultures V-1RF at an MOI of approximately 0.01. At he soluble tetrazolium-based dye MTS viability and quantify compound toxicity of metabolically active cells to yield a soluble analysis of cell viability and compound
Efficacy Evaluation in CEM-SS Cells Anti-HIV-1 Cytoprotection Assay
Cell Preparation—CEM-SS cells were passaged in T-75 flasks prior to use in the antiviral assay. On the day preceding the assay, the cells were split 1:2 to assure they were in an exponential growth phase at the time of infection. Total cell and viability quantification was performed using a hemacytometer and trypan blue exclusion. Cell viability was greater than 95% for the cells to be utilized in the assay. The cells were resuspended at 5×10^4 cells/ml in tissue culture medium and added to the drug-containing microtiter plates in a volume of 50 μl.
Virus Preparation—The virus used for these tests was the lymphocytropic virus strain HIV-1RF. This virus was obtained from the NIH AIDS Research and Reference Reagent Program and was grown in CEM-SS cells for the production of stock virus pools. For each assay, a pre-titered aliquot of virus was removed from the freezer (−80° C.) and allowed to thaw slowly to room temperature in a biological safety cabinet. The virus was resuspended and diluted into tissue culture medium such that the amount of virus added to each well in a volume of 50 μl was the amount determined to give between 85 to 95% cell killing at 6 days post-infection.
(§2) At assay termination, the assay plates were stained with the soluble tetrazolium-based dye MTS (CellTiter Reagent Promega) to determine cell viability and quantify compound toxicity. MTS is metabolized by the mitochondrial enzymes of metabolically active cells to yield a soluble formazan product, allowing the rapid quantitative analysis of cell viability and compound cytotoxicity. […] At termination of the assay, 20 μL of MTS reagent was added per well. The microtiter plates were then incubated 4-6 hrs at 37° C. for the HIV cytoprotection assay; the incubation intervals were chosen based on empirically determined times for optimal dye reduction. Adhesive plate sealers were used in place of the lids, the sealed plate was inverted several times to mix the soluble formazan product and the plate was read spectrophotometrically at 490 nm with a Molecular Devices Vmax plate reader.

CEM cells = assay: Cell uptake procedure (intracellular nucleotide levels by HPLC); type: cell-based, Human; settings: 24 hour incubation, limit of detection about 5 pmol/10^6 cells
Experimental: CEM cells were resuspended in RPMI at 1×10^7 cells/mL. The appropriate amount of each compound was added to well and then 0.5 ml of the cells was aliquoted into the appropriate number of wells of a 24-well plate and incubated the cells at 37° C. Cells were harvested after 24 hours of incubation. To harvest cells they were transferred to a microfuge tube and spun for one minute at high speed. The samples were washed in PBS containing 1 mg/ml BSA and re-centrifuged. The PBS was then aspirated and 200 μL of ice-cold 60% methanol was added to extract the nucleotides. The extracts were incubated overnight at −20° C. The next day the samples were spun at high speed in a microfuge for 20 minutes and the supernatant transferred to clean tubes and dried in the speed vac. After drying the samples were resuspended in 50 μl, filtered, and the samples then directly injected onto the HPLC. The nucleotides were analyzed using reverse phase HPLC with ion-pairing agents for separation of the nucleotides. The procedure was adapted from the following paper: Furman, et al., Proc. Natl. Acad. Sci. USA 1986, 83, 8333-8337.
The limit of detection was estimated to be 5 pmol/10^6 cells.

CEM-SS cells = assay: Compound toxicity in CEM-SS cells (MTS staining); type: cell-based; settings: read-out: CEM-SS TC50
Experimental: as §1, §2

Escherichia coli = assay: Antimicrobial assay, minimal inhibitory concentration; type: cell-based
in vitro [3] = settings: human
Experimental: The stability of compounds in cell extracts was examined as follows:
Cell lysis buffer was added to cell pellets and the cells frozen and thawed 3× using dry ice. The lysis buffer (LB) was composed of the following: 50 mM Tris-HCl, pH 7.4 (100 μl/ml 10× stock), 20% glycerol (200 μl/ml), and 0.5% Triton X-100 (5 μl/ml). 100 μl of LB was added to each microfuge tube containing 10^7 frozen CEM cells. After the cells were lysed the extracts were centrifuged at high speed in a microcentrifuge for 5 minutes and the clarified cell extract transferred to a new tube. The cell stability reaction mixtures contained concentrations of buffer, magnesium, nucleotide, and cell extract as shown below:
The reaction mixtures were incubated at 37° C. At each time point, including at time zero, 12.5 μl aliquots were added to 40 μl ice-cold methanol. […] The samples were incubated in methanol for at least 60 minutes and typically overnight at −20° C. prior to further processing. The cell extracts were centrifuged at high speed in refrigerated microcentrifuge for 20 minutes and the supernatant transferred to a new tube. The extract was then dried under vacuum in a LabConco Centrivap Concentrator. The samples were then resuspended in 40 or 50 μl dH2O, filtered to remove any particulate, and analyzed by reverse phase HPLC.
The reverse phase HPLC columns used for the analysis were either a Phenomenex C18 Aqua column (2×100 mm) or the Phenomenex C18 Aqua column (3×150 mm) used with the appropriate guard column. The HPLC flow rate was either 0.2 ml/min (for the 2×100 mm column) or 0.5 ml/min (for the 3×150 mm column) with the following buffer system: 5 mM tetrabutylammonium acetate, 50 mM ammonium phosphate, and an acetonitrile gradient running from 5% up to as high as 60%. The amount of remaining parent compound at each time point was used to determine the half-life of the compound. […] Unmodified nucleoside triphosphates were used as positive controls.

in vitro [4] = settings: bovine, serum
[5] = target: Ribonucleotide Reductase (RNR R1/R2) (Escherichia coli, UniProt P00452); assay: Ribonucleotide Reductase inhibition assay (coupled NADPH oxidation); type: biochemical
Experimental: The assays employed to measure inhibition of Ribonucleotide Reductase (RNR) activity are described below. The effectiveness of the compounds of the present invention as inhibitors of RNR enzyme was determined using the following assays.
This assay was used to measure the ability of the nucleotide mimics of the present invention to inhibit the enzymatic reaction catalyzed by RNR enzyme. In the reduction of cytidine 5′-diphosphate (CDP) to 2′-deoxycytidine 5′-diphosphate (dCDP), stoichiometric amounts of oxidized thioredoxin are formed. This protein is reduced by NADPH in a reaction catalyzed by thioredoxin reductase. By coupling the two reactions, RNR activity was measured by spectrophotometric determination of NADPH oxidation at 340 nm using a UV/VIS spectrophotometer. […]
The standard RNR assay is performed in a 96-well plate (Corning). […] The oxidation of NADPH was monitored at 340 nm on a microplate spectrophotometer (Molecular Devices Corp, Sunnyvale, Calif.). […]
The percentage of inhibition was calculated according to the following equation: […]
Each inhibitor was titrated over an appropriate range of concentrations, and IC50 values were determined using the equation: […]

Staphylococcus aureus = assay: Antimicrobial assay, minimal inhibitory concentration; type: cell-based
Outline: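 E. coli and S. aureus grown overnight at 37° C were first screened by disc diffusion on Nutrient Broth agar lawns. MIC was then read after overnight incubation at 37° C as the lowest compound concentration giving no increase in absorbance at 600 nm.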

[6] = overnight at 37° C., tested 0-200 μg/ml, NA = Not active
[7] = value in brackets beside the μg/ml value

Ribonucleotide Reductase (RNR R1/R2), sequence (P69924 2-376): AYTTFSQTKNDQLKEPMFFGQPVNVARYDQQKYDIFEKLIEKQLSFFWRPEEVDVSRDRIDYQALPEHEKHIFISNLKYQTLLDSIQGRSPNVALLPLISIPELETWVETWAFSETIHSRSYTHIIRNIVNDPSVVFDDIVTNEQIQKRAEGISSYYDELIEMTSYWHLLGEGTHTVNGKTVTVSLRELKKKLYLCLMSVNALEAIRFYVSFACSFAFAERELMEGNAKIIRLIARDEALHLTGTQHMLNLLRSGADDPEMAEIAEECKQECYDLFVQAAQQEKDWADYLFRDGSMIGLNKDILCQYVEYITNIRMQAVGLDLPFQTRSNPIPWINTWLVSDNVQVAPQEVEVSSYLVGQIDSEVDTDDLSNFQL
Ribonucleotide Reductase (RNR R1/R2), sequence (P00452 whole entry): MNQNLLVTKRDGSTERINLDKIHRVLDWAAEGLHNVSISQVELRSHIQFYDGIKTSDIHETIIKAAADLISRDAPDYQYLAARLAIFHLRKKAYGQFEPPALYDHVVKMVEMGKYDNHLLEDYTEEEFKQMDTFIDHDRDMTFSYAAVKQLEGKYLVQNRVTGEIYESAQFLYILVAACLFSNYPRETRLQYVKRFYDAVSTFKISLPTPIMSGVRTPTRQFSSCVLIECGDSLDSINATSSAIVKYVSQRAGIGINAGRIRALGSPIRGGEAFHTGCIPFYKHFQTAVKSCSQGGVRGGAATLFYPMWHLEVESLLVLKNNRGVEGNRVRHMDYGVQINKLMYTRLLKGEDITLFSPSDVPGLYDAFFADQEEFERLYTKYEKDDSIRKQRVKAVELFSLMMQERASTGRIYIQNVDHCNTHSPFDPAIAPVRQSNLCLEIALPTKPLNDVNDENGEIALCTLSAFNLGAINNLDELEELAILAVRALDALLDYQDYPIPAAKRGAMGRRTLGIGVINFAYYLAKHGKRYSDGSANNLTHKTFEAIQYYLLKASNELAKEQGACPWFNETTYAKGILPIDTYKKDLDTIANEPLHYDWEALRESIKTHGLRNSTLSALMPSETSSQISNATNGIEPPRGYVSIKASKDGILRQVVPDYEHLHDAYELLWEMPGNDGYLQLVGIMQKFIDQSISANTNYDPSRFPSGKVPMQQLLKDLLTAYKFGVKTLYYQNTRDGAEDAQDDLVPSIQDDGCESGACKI

Nc1ccn([C@@H]2O[C@H](COP(=O)(O)CCP(=O)(O)O)[C@@H](O)C2(F)F)c(=O)n1 [Compound 81, 2′-Deoxy-2′,2′-difluorocytidine 5′-ethylenediphosphonate]
pKi [1]: 4.80

D4T 5′-α-P-boranotriphosphate
Ki values, inhibition of HIV reverse transcriptase (RT) [2]: low nM range

BP(=O)(OC[C@H]1O[C@@H](n2cc(C)c(=O)[nH]c2=O)C[C@H]1N=[N+]=[N-])OP(=O)(O)C(F)(F)P(=O)(O)OCOC(=O)C(C)(C)C (stereo partly drawn) [Compound 69, 3′-Azido-3′-deoxythymidine 5′-α-P-borano-γ-O-(pivaloyloxymethyl)-β,γ-(difluoromethylene)triphosphate]
pIC50 (HIV-1RF): 5.95
Intracellular levels of 27 (CEM cells; incubation concentration 25 μM): 33.1 pmol/10^6 cells
Intracellular levels of 27 (CEM cells; incubation concentration 50 μM): 51.1 pmol/10^6 cells
Intracellular levels of 27 (CEM cells; incubation concentration 100 μM): 70.8 pmol/10^6 cells
CC50 (CEM-SS cells): 45.9 µM
E. coli MIC (Escherichia coli; [6]): 0.75 µg/mL
E. coli MIC (Escherichia coli; [7]): (1) uM
Half-Life, Cell Extract Half-Lives of AZT 5'-α-P-borano-β,γ-(difluoromethylene) triphosphate Prodrugs (in vitro [3]): 8 h
Half-Life, Serum Half-Lives of AZT Triphosphate Mimic Prodrugs (in vitro [4]): >48 h

Nc1nc2c(ncn2[C@@H]2O[C@H](COP(=O)(O)OP(=O)(O)O)[C@@H](O)[C@H]2O)c(=O)[nH]1 [Guanosine 5′-diphosphate]
pKi [1]: 4.82

Nc1ccn([C@@H]2O[C@H](COP(=O)(O)OP(=O)(O)O)[C@@H](O)C2=CF)c(=O)n1 [2′-Deoxy-2′-fluoromethylenecytidine 5′-diphosphate]
pKi [1]: 4.71

Nc1ccn([C@@H]2O[C@H](COP(=O)(O)NP(=O)(O)O)[C@@H](O)C2(F)F)c(=O)n1 [Compound 6, 2′-Deoxy-2′,2′-difluorocytidine 5′-imidodiphosphate]
pIC50 [5]: 4.90
half-life at 500 μM (in vitro [4]; Half-Life, Serum Half-Lives of Gemcitibine Diphosphate Mimics and Their Prodrugs): 15 h

BP(=O)(OC[C@@H]1O[C@H](n2cc(C)c(=O)[nH]c2=O)C[C@H]1N=[N+]=[N-])OP(=O)(O)OP(=O)(O)O (stereo partly drawn) [AZT 5′-α-P-boranotriphosphate]
Ki values, inhibition of HIV reverse transcriptase (RT) [2]: low nM range

Nc1ccn([C@@H]2O[C@H](COP(=O)(O)NP(=O)(O)O)[C@@H](O)/C2=C\F)c(=O)n1 [Compound 3, 2′-Deoxy-(E)-2′-fluoromethylenecytidine 5′-imidodiphosphate]
pIC50 ([5]; 3-minute inactivation, then assay with 1 mM CDP, read-out: IC50, Inhibition of Ribonucleotide Reductase by Nucleotide Mimics): 5.05

Nc1nc2c(ncn2[C@@H]2O[C@H](COP(=O)(O)NP(=O)(O)O)[C@@H](O)[C@H]2O)c(=O)[nH]1 [Guanosine 5′-imidodiphosphate]
pKi [1]: 5.24

3′-Azido-3′-deoxythymidine 5′-α-P-borano-β,γ-difluoromethylene-γ-O-palmityltriphosphate [Compound 41]
pIC50 (HIV-1RF): 5.85
CC50 (CEM-SS cells): 12 µM
S. aureus MIC (Staphylococcus aureus; [6]): 5 to 10 µg/mL
S. aureus MIC (Staphylococcus aureus; [7]): (6.5-13) μM
E. coli MIC (Escherichia coli; [6]): 25 to 50 µg/mL
E. coli MIC (Escherichia coli; [7]): (33-66) uM
Half-Life, Cell Extract Half-Lives of AZT 5'-α-P-borano-β,γ-(difluoromethylene) triphosphate Prodrugs (in vitro [3]): >48 h
